Test results from patent US20230210831A1, “CHRONIC KIDNEY DISEASE TREATMENT OR PREVENTION METHOD” (Japan Tobacco Inc., priority 2019, published 2023).

Columns and labels:
Assay type in all cases: cell-based
[1] = tested on: Salmonella typhimurium TA98; assay: Ames test (reverse mutation test), TA98
Protocol: (§1) The solvent used herein was dimethyl sulfoxide (DMSO, 100 µL/plate).
(§2) The mixtures were preincubated at 37° C. for 20 minutes while shaking. […] Two plates per treatment were used.

[2] = tested on: Salmonella typhimurium TA1537; assay: Ames test (reverse mutation test), TA1537
Protocol: as §1, §2

[3] = tested on: Salmonella typhimurium TA100; assay: Ames test (reverse mutation test), TA100
Protocol: as §1, §2

[4] = tested on: Salmonella typhimurium TA1535; assay: Ames test (reverse mutation test), TA1535
Protocol: as §1, §2

Escherichia coli WP2uvrA = assay: Ames test (reverse mutation test), WP2uvrA
Protocol: as §1, §2

Cc1cccc(-n2nc(N)cc2-c2cccc(OC(F)(F)F)c2)c1 [Metabolite H]
Number of revertant colonies TA98 ([1]; S9 Mix +, dose 2.3 µg/plate): 56
Number of revertant colonies TA98 ([1]; S9 Mix +, dose 6.9 µg/plate): 61
Number of revertant colonies TA98 ([1]; S9 Mix +, dose 21 µg/plate): 152
Number of revertant colonies TA98 ([1]; S9 Mix +, dose 62 µg/plate): 194
Number of revertant colonies TA98 ([1]; S9 Mix +, dose 185 µg/plate): 85
Number of revertant colonies TA98 ([1]; S9 Mix +, dose 556 µg/plate): 56
Number of revertant colonies TA98 ([1]; S9 Mix +, dose 1667 µg/plate): 48
Number of revertant colonies TA98 ([1]; S9 Mix +, dose 5000 µg/plate): 20
Number of revertant colonies TA98 ([1]; S9 Mix -, dose 2.3 µg/plate): 18
Number of revertant colonies TA98 ([1]; S9 Mix -, dose 6.9 µg/plate): 23
Number of revertant colonies TA98 ([1]; S9 Mix -, dose 21 µg/plate): 18
Number of revertant colonies TA98 ([1]; S9 Mix -, dose 62 µg/plate): 20
Number of revertant colonies TA98 ([1]; S9 Mix -, dose 185 µg/plate): 22
Number of revertant colonies TA98 ([1]; S9 Mix -, dose 556 µg/plate): 20
Number of revertant colonies TA98 ([1]; S9 Mix -, dose 1667 µg/plate): 17
Number of revertant colonies TA98 ([1]; S9 Mix -, dose 5000 µg/plate): 3
potential to induce reverse mutations ([1]; TA98 with S9 mix): showed potential to induce reverse mutations
Number of revertant colonies TA1537 ([2]; S9 Mix +, dose 2.3 µg/plate): 11
Number of revertant colonies TA1537 ([2]; S9 Mix +, dose 6.9 µg/plate): 15
Number of revertant colonies TA1537 ([2]; S9 Mix +, dose 21 µg/plate): 26
Number of revertant colonies TA1537 ([2]; S9 Mix +, dose 62 µg/plate): 35
Number of revertant colonies TA1537 ([2]; S9 Mix +, dose 185 µg/plate): 18
Number of revertant colonies TA1537 ([2]; S9 Mix +, dose 556 µg/plate): 10
Number of revertant colonies TA1537 ([2]; S9 Mix +, dose 1667 µg/plate): 19
Number of revertant colonies TA1537 ([2]; S9 Mix +, dose 5000 µg/plate): 15
Number of revertant colonies TA1537 ([2]; S9 Mix -, dose 2.3 µg/plate): 9
Number of revertant colonies TA1537 ([2]; S9 Mix -, dose 6.9 µg/plate): 9
Number of revertant colonies TA1537 ([2]; S9 Mix -, dose 21 µg/plate): 11
Number of revertant colonies TA1537 ([2]; S9 Mix -, dose 62 µg/plate): 9
Number of revertant colonies TA1537 ([2]; S9 Mix -, dose 185 µg/plate): 4
Number of revertant colonies TA1537 ([2]; S9 Mix -, dose 556 µg/plate): 6
Number of revertant colonies TA1537 ([2]; S9 Mix -, dose 1667 µg/plate): 5
Number of revertant colonies TA1537 ([2]; S9 Mix -, dose 5000 µg/plate): 2
potential to induce reverse mutations ([2]; TA1537 with S9 mix): showed potential to induce reverse mutations
Number of revertant colonies TA100 ([3]; S9 Mix +, dose 2.3 µg/plate): 449
Number of revertant colonies TA100 ([3]; S9 Mix +, dose 6.9 µg/plate): 1035
Number of revertant colonies TA100 ([3]; S9 Mix +, dose 21 µg/plate): 2000
Number of revertant colonies TA100 ([3]; S9 Mix +, dose 62 µg/plate): 2212
Number of revertant colonies TA100 ([3]; S9 Mix +, dose 185 µg/plate): 722
Number of revertant colonies TA100 ([3]; S9 Mix +, dose 556 µg/plate): 373
Number of revertant colonies TA100 ([3]; S9 Mix +, dose 1667 µg/plate): 242
Number of revertant colonies TA100 ([3]; S9 Mix +, dose 5000 µg/plate): 75
Number of revertant colonies TA100 ([3]; S9 Mix -, dose 2.3 µg/plate): 130
Number of revertant colonies TA100 ([3]; S9 Mix -, dose 6.9 µg/plate): 127
Number of revertant colonies TA100 ([3]; S9 Mix -, dose 21 µg/plate): 136
Number of revertant colonies TA100 ([3]; S9 Mix -, dose 62 µg/plate): 113
Number of revertant colonies TA100 ([3]; S9 Mix -, dose 185 µg/plate): 103
Number of revertant colonies TA100 ([3]; S9 Mix -, dose 556 µg/plate): 88
Number of revertant colonies TA100 ([3]; S9 Mix -, dose 1667 µg/plate): 79
Number of revertant colonies TA100 ([3]; S9 Mix -, dose 5000 µg/plate): 55
potential to induce reverse mutations ([3]; TA100 with S9 mix): showed potential to induce reverse mutations
Number of revertant colonies TA1535 ([4]; S9 Mix +, dose 1667 µg/plate): 3
Number of revertant colonies TA1535 ([4]; S9 Mix -, dose 185 µg/plate): 14
Number of revertant colonies TA1535 ([4]; S9 Mix -, dose 1667 µg/plate): 6
Number of revertant colonies WP2uvrA (Escherichia coli WP2uvrA; S9 Mix +, dose 2.3 µg/plate): 23
Number of revertant colonies WP2uvrA (Escherichia coli WP2uvrA; S9 Mix +, dose 6.9 µg/plate): 25
Number of revertant colonies WP2uvrA (Escherichia coli WP2uvrA; S9 Mix +, dose 21 µg/plate): 25
Number of revertant colonies WP2uvrA (Escherichia coli WP2uvrA; S9 Mix +, dose 62 µg/plate): 35
Number of revertant colonies WP2uvrA (Escherichia coli WP2uvrA; S9 Mix +, dose 185 µg/plate): 26
Number of revertant colonies WP2uvrA (Escherichia coli WP2uvrA; S9 Mix +, dose 556 µg/plate): 20
Number of revertant colonies WP2uvrA (Escherichia coli WP2uvrA; S9 Mix +, dose 1667 µg/plate): 19
Number of revertant colonies WP2uvrA (Escherichia coli WP2uvrA; S9 Mix +, dose 5000 µg/plate): 9
Number of revertant colonies WP2uvrA (Escherichia coli WP2uvrA; S9 Mix -, dose 2.3 µg/plate): 21
Number of revertant colonies WP2uvrA (Escherichia coli WP2uvrA; S9 Mix -, dose 6.9 µg/plate): 18
Number of revertant colonies WP2uvrA (Escherichia coli WP2uvrA; S9 Mix -, dose 21 µg/plate): 18
Number of revertant colonies WP2uvrA (Escherichia coli WP2uvrA; S9 Mix -, dose 62 µg/plate): 20
Number of revertant colonies WP2uvrA (Escherichia coli WP2uvrA; S9 Mix -, dose 185 µg/plate): 20
Number of revertant colonies WP2uvrA (Escherichia coli WP2uvrA; S9 Mix -, dose 556 µg/plate): 17
Number of revertant colonies WP2uvrA (Escherichia coli WP2uvrA; S9 Mix -, dose 1667 µg/plate): 13
Number of revertant colonies WP2uvrA (Escherichia coli WP2uvrA; S9 Mix -, dose 5000 µg/plate): 8
